# Measurements taken from US8796289B2 (AbbVie Inc., priority 2011, dated 2014).
# Biological target: GST-tagged-Wee1 kinase (Homo sapiens, UniProt P30291)
# Assay: Wee1 time-resolved fluorescence equilibrium binding assay (displacement of Oregon Green-labeled ATP-competitive kinase probe)
# Procedure: Wee1 kinase was assayed using a time-resolved fluorescence equilibrium binding assay monitoring displacement of a rapidly reversible Oregon Green-labeled ATP-competitive kinase probe (N-(2-(2-(2-(4-(4-(5-chloro-4-(2-(1-hydroxycyclobutyl)thiazol-5-yl)-1H-pyrrolo[2,3-b]pyridin-2-yl)phenyl)piperazin-1-yl)ethoxy)ethoxy)ethyl)-2′,7′-difluoro-3′,6′-dihydroxy-3-oxo-3H-spiro[isobenzofuran-1,9′-xanthene]-5-carboxamide) by competitive Wee1 inhibitors.
# GST-tagged-Wee1 kinase, sequence (P30291 whole entry): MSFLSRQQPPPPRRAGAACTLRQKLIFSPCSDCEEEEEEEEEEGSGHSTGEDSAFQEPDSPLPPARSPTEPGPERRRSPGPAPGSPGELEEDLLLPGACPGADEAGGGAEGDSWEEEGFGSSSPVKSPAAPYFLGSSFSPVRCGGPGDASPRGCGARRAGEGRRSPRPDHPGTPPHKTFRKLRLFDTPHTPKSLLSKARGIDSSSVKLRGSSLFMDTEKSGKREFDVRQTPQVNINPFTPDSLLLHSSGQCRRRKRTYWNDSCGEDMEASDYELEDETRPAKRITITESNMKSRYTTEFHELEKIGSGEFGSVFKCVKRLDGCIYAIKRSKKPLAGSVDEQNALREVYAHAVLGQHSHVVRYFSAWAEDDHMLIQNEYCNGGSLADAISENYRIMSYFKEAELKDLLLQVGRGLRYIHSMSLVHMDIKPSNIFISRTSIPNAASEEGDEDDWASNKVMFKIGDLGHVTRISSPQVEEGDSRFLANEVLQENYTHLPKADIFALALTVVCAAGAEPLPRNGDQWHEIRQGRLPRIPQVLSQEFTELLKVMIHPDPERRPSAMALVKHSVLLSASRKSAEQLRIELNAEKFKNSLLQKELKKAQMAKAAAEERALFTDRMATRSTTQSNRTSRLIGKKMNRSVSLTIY
row,SMILES,Ki [nM]
1,"Cc1nn(-c2c(Cl)cccc2Cl)c(=O)c2cnc(Nc3ccc4c(c3)CN(S(N)(=O)=O)CC43CC3)nc12 [Example 436, 7′-{[6-(2,6-dichlorophenyl)-8-methyl-5-oxo-5,6-dihydropyrimido[4,5-d]pyridazin-2-yl]amino}-1′H-spiro[cyclopropane-1,4′-isoquinoline]-2′(3′H)-sulfonamide]",0.65
2,"Cc1nn(-c2c(Cl)cccc2Cl)c(=O)c2cnc(Nc3ccc4c(c3)CCN(C(=O)C(C)(C)O)C4)nc12 [Example 437, 6-(2,6-dichlorophenyl)-2-{[2-(2-hydroxy-2-methylpropanoyl)-1,2,3,4-tetrahydroisoquinolin-6-yl]amino}-8-methylpyrimido[4,5-d]pyridazin-5(6H)-one]",0.8
3,"Cc1nn(-c2c(Cl)cccc2Cl)c(=O)c2cnc(Nc3ccc(N4CCNC(=O)C4)cc3)nc12 [Example 442, 6-(2,6-dichlorophenyl)-8-methyl-2-{[4-(3-oxopiperazin-1-yl)phenyl]amino}pyrimido[4,5-d]pyridazin-5(6H)-one]",0.46
4,"Cc1nn(-c2c(Cl)cccc2Cl)c(=O)c2cnc(Nc3ccc(N4CCN(C5COC5)CC4)cc3)nc12 [Example 445, 6-(2,6-dichlorophenyl)-8-methyl-2-({4-[4-(oxetan-3-yl)piperazin-1-yl]phenyl}amino)pyrimido[4,5-d]pyridazin-5(6H)-one]",0.33
5,"Cc1nn(-c2c(Cl)cccc2Cl)c(=O)c2cnc(Nc3ccc(N4CC5CNCC5C4)cc3)nc12 (stereo not drawn) [Example 446, 6-(2,6-dichlorophenyl)-2-{[4-(hexahydropyrrolo[3,4-c]pyrrol-2(1H)-yl)phenyl]amino}-8-methylpyrimido[4,5-d]pyridazin-5(6H)-one]",0.27
6,"Cc1nn(-c2c(Cl)cncc2Cl)c(=O)c2cnc(Nc3ccc4c(c3)CNCC43CC3)nc12 [Example 447, 6-(3,5-dichloropyridin-4-yl)-2-(2′,3′-dihydro-1′H-spiro[cyclopropane-1,4′-isoquinolin]-7′-ylamino)-8-methylpyrimido[4,5-d]pyridazin-5(6H)-one]",0.4
7,"Cc1nn(-c2c(Cl)cncc2Cl)c(=O)c2cnc(Nc3ccc4c(c3)CCNC4)nc12 [Example 448, 6-(3,5-dichloropyridin-4-yl)-8-methyl-2-(1,2,3,4-tetrahydroisoquinolin-6-ylamino)pyrimido[4,5-d]pyridazin-5(6H)-one]",0.5
8,"CC(=O)N1CCc2cc(Nc3ncc4c(=O)n(-c5c(Cl)cccc5Cl)nc(C)c4n3)ccc2C1 [Example 449, 2-[(2-acetyl-1,2,3,4-tetrahydroisoquinolin-6-yl)amino]-6-(2,6-dichlorophenyl)-8-methylpyrimido[4,5-d]pyridazin-5(6H)-one]",0.55
9,"Cc1nn(-c2c(Cl)cccc2Cl)c(=O)c2cnc(Nc3ccc4c(c3)CCN(S(C)(=O)=O)C4)nc12 [Example 450, 6-(2,6-dichlorophenyl)-8-methyl-2-{[2-(methylsulfonyl)-1,2,3,4-tetrahydroisoquinolin-6-yl]amino}pyrimido[4,5-d]pyridazin-5(6H)-one]",0.61
10,"Cc1nn(-c2c(Cl)cccc2Cl)c(=O)c2cnc(Nc3ccc(CN4CCN(C)CC4)cc3)nc12 [Example 454, 6-(2,6-dichlorophenyl)-8-methyl-2-({4-[(4-methylpiperazin-1-yl)methyl]phenyl}amino)pyrimido[4,5-d]pyridazin-5(6H)-one]",1.2
11,"Cc1nn(-c2c(Cl)cccc2Cl)c(=O)c2cnc(Nc3ccc(C4CCCN4)cc3)nc12 (stereo not drawn) [Example 455, 6-(2,6-dichlorophenyl)-8-methyl-2-{[4-(pyrrolidin-2-yl)phenyl]amino}pyrimido[4,5-d]pyridazin-5(6H)-one]",0.5
12,"Cc1nn(-c2c(Cl)cccc2Cl)c(=O)c2cnc(Nc3ccc(C4CCN(C)CC4)cc3)nc12 [Example 456, 6-(2,6-dichlorophenyl)-8-methyl-2-{[4-(1-methylpiperidin-4-yl)phenyl]amino}pyrimido[4,5-d]pyridazin-5(6H)-one]",0.5
13,"Cc1nn(-c2c(Cl)cccc2Cl)c(=O)c2cnc(Nc3ccc(N4C[C@H]5C[C@@H]4CN5)cc3)nc12 [Example 457, 2-({4-[(1R,4R)-2,5-diazabicyclo[2.2.1]hept-2-yl]phenyl}amino)-6-(2,6-dichlorophenyl)-8-methylpyrimido[4,5-d]pyridazin-5(6H)-one]",0.28
14,"Cc1nn(-c2c(Cl)cccc2Cl)c(=O)c2cnc(Nc3ccc(C4CCNCC4)cc3)nc12 [Example 458, 6-(2,6-dichlorophenyl)-8-methyl-2-{[4-(piperidin-4-yl)phenyl]amino}pyrimido[4,5-d]pyridazin-5(6H)-one]",0.23
15,"Cc1nn(-c2c(Cl)cccc2Cl)c(=O)c2cnc(Nc3ccc(C4CCCNC4)cc3)nc12 (stereo not drawn) [Example 459, 6-(2,6-dichlorophenyl)-8-methyl-2-{[4-(piperidin-3-yl)phenyl]amino}pyrimido[4,5-d]pyridazin-5(6H)-one]",0.17

# More lines, now with the values ahead:
row,Ki [nM],SMILES
1,0.2,"CN1Cc2cc(Nc3ncc4c(=O)n(-c5c(Cl)cccc5Cl)nc(CO)c4n3)ccc2C2(CC2)C1 [Example 432, 6-(2,6-dichlorophenyl)-8-(hydroxymethyl)-2-[(2′-methyl-2′,3′-dihydro-1′H-spiro[cyclopropane-1,4′-isoquinolin]-7′-yl)amino]pyrimido[4,5-d]pyridazin-5(6H)-one]"
2,0.15,"O=c1c2cnc(Nc3ccc4c(c3)CNCC43CC3)nc2c(CO)nn1-c1c(Cl)cccc1Cl [Example 433, 6-(2,6-dichlorophenyl)-2-(2′,3′-dihydro-1′H-spiro[cyclopropane-1,4′-isoquinolin]-7′-ylamino)-8-(hydroxymethyl)pyrimido[4,5-d]pyridazin-5(6H)-one]"
3,0.46,"Cc1nn(-c2c(Cl)cccc2Cl)c(=O)c2cnc(Nc3ccc4c(c3)CCN(C)C4)nc12 [Example 435, 6-(2,6-dichlorophenyl)-8-methyl-2-[(2-methyl-1,2,3,4-tetrahydroisoquinolin-6-yl)amino]pyrimido[4,5-d]pyridazin-5(6H)-one]"
4,0.18,"Cc1nn(-c2c(Cl)cccc2Cl)c(=O)c2cnc(Nc3ccc4c(c3)CNCC4(C)C)nc12 [Example 438, 6-(2,6-dichlorophenyl)-2-[(4,4-dimethyl-1,2,3,4-tetrahydroisoquinolin-7-yl)amino]-8-methylpyrimido[4,5-d]pyridazin-5(6H)-one]"
5,0.69,"CC(=O)N1Cc2cc(Nc3ncc4c(=O)n(-c5c(Cl)cccc5Cl)nc(C)c4n3)ccc2C(C)(C)C1 [Example 439, 2-[(2-acetyl-4,4-dimethyl-1,2,3,4-tetrahydroisoquinolin-7-yl)amino]-6-(2,6-dichlorophenyl)-8-methylpyrimido[4,5-d]pyridazin-5(6H)-one]"
6,0.82,"Cc1nn(-c2c(Cl)cccc2Cl)c(=O)c2cnc(Nc3ccc4c(c3)CN(C(=O)C3CC3)CC4(C)C)nc12 [Example 440, 2-{[2-(cyclopropylcarbonyl)-4,4-dimethyl-1,2,3,4-tetrahydroisoquinolin-7-yl]amino}-6-(2,6-dichlorophenyl)-8-methylpyrimido[4,5-d]pyridazin-5(6H)-one]"
7,0.72,"Cc1nn(-c2c(Cl)cccc2Cl)c(=O)c2cnc(Nc3ccc4c(c3)CN(S(C)(=O)=O)CC4(C)C)nc12 [Example 441, 6-(2,6-dichlorophenyl)-2-{[4,4-dimethyl-2-(methylsulfonyl)-1,2,3,4-tetrahydroisoquinolin-7-yl]amino}-8-methylpyrimido[4,5-d]pyridazin-5(6H)-one]"
8,0.3,"Cc1nn(-c2c(Cl)cccc2Cl)c(=O)c2cnc(Nc3ccc4c(c3)C(C)(C)N(C)CC4)nc12 [Example 443, 6-(2,6-dichlorophenyl)-8-methyl-2-[(1,1,2-trimethyl-1,2,3,4-tetrahydroisoquinolin-7-yl)amino]pyrimido[4,5-d]pyridazin-5(6H)-one]"
9,0.16,"Cc1nn(-c2c(Cl)cccc2Cl)c(=O)c2cnc(Nc3ccc4c(c3)C(C)(C)NCC4)nc12 [Example 444, 6-(2,6-dichlorophenyl)-2-[(1,1-dimethyl-1,2,3,4-tetrahydroisoquinolin-7-yl)amino]-8-methylpyrimido[4,5-d]pyridazin-5(6H)-one]"
10,0.19,"Cc1nn(-c2c(Cl)cccc2Cl)c(=O)c2cnc(Nc3ccc4c(c3)CNC4)nc12 [Example 451, 6-(2,6-dichlorophenyl)-2-(2,3-dihydro-1H-isoindol-5-ylamino)-8-methylpyrimido[4,5-d]pyridazin-5(6H)-one]"
11,0.16,"Cc1nn(-c2c(Cl)cccc2Cl)c(=O)c2cnc(Nc3ccc4c(c3)CCNC4(C)C)nc12 [Example 452, 6-(2,6-dichlorophenyl)-2-[(1,1-dimethyl-1,2,3,4-tetrahydroisoquinolin-6-yl)amino]-8-methylpyrimido[4,5-d]pyridazin-5(6H)-one]"
12,0.36,"Cc1nn(-c2c(Cl)cccc2Cl)c(=O)c2cnc(Nc3ccc4c(c3)CCN(C)C4(C)C)nc12 [Example 453, 6-(2,6-dichlorophenyl)-8-methyl-2-[(1,1,2-trimethyl-1,2,3,4-tetrahydroisoquinolin-6-yl)amino]pyrimido[4,5-d]pyridazin-5(6H)-one]"
13,0.32,"CCc1nn(-c2c(Cl)cccc2Cl)c(=O)c2cnc(Nc3ccc4c(c3)CCN(C)C4(C)C)nc12 [Example 460, 6-(2,6-dichlorophenyl)-8-ethyl-2-[(1,1,2-trimethyl-1,2,3,4-tetrahydroisoquinolin-6-yl)amino]pyrimido[4,5-d]pyridazin-5(6H)-one]"
14,0.68,"CCc1nn(-c2c(Cl)cccc2Cl)c(=O)c2cnc(Nc3ccc4c(c3)C(C)(C)N(C)CC4)nc12 [Example 461, 6-(2,6-dichlorophenyl)-8-ethyl-2-[(1,1,2-trimethyl-1,2,3,4-tetrahydroisoquinolin-7-yl)amino]pyrimido[4,5-d]pyridazin-5(6H)-one]"
15,0.95,"CCc1nn(-c2c(Cl)cccc2Cl)c(=O)c2cnc(Nc3ccc4c(c3)CNCC4(C)C)nc12 [Example 462, 6-(2,6-dichlorophenyl)-2-[(4,4-dimethyl-1,2,3,4-tetrahydroisoquinolin-7-yl)amino]-8-ethylpyrimido[4,5-d]pyridazin-5(6H)-one]"
